One test deals with PIM1 (Homo sapiens (Human), UniProt P11309). The test can be described thus: Pim1 ATP depletion assay. The conditions noted are these: 20 μM ATP, 40 μM BAD peptide. The test is classed as biochemical. The protocol:
The activity of PIM1 is measured using a luciferase-luciferin based ATP detection reagent to quantify ATP depletion resulting from kinase-catalyzed phosphoryl transfer to a peptide substrate. Compounds to be tested are dissolved in 100% DMSO and directly distributed into white 384-well plates at 0.5 μA per well. To start the reaction, 10 μl of 5 nM Pim1 kinase and 80 μM BAD peptide (RSRHSSYPAGT-OH) in assay buffer (50 mM HEPES pH 7.5, 5 mM MgCl2, 1 mM DTT, 0.05% BSA) is added into each well. After 15 minutes, 10 μl of 40 μM ATP in assay buffer is added. Final assay concentrations are 2.5 nM PIM1, 20 μM ATP, 40 μM BAD peptide and 2.5% DMSO. The reaction is performed until approximately 50% of the ATP is depleted, then stopped with the addition of 20 μl KinaseGlo Plus (Promega Corporation) solution. The stopped reaction is incubated for 10 minutes and the remaining ATP detected via luminescence on the Victor2 (Perkin Elmer). […] IC50, the half maximal inhibitory concentration, represents the concentration of a test compound that is required for 50% inhibition of its target in vitro.

The target in a further test is PIM2 (Homo sapiens (Human), UniProt Q9P1W9). The test can be described thus: Pim2 ATP depletion assay. The test is classed as biochemical. The conditions noted are these: 4 μM ATP, 10 μM BAD peptide. As for the experimental part:
The activity of PIM2 is measured using a luciferase-luciferin based ATP detection reagent to quantify ATP depletion resulting from kinase-catalyzed phosphoryl transfer to a peptide substrate. Compounds to be tested are dissolved in 100% DMSO and directly distributed into white 384-well plates at 0.5 μl per well. To start the reaction, 10 μl of 10 nM Pim2 kinase and 20 μM BAD peptide (RSRHSSYPAGT-OH) in assay buffer (50 mM HEPES pH 7.5, 5 mM MgCl2, 1 mM DTT, 0.05% BSA) is added into each well. After 15 minutes, 10 μl of 8 μM ATP in assay buffer is added. Final assay concentrations are 5 nM PIM2, 4 μM ATP, 10 μM BAD peptide and 2.5% DMSO. The reaction is performed until approximately 50% of the ATP is depleted, then stopped with the addition of 20 μl KinaseGlo Plus (Promega Corporation) solution. The stopped reaction is incubated for 10 minutes and the remaining ATP detected via luminescence on the Victor2 (Perkin Elmer).

A further test has as its target PIM3 (Homo sapiens (Human), UniProt Q86V86). Put plainly: Pim3 ATP depletion assay. The class given is biochemical. The conditions noted are these: 40 μM ATP, 100 μM BAD peptide. The protocol: The activity of PIM3 is measured using a luciferase-luciferin based ATP detection reagent to quantify ATP depletion resulting from kinase-catalyzed phosphoryl transfer to a peptide substrate. Compounds to be tested are dissolved in 100% DMSO and directly distributed into white 384-well plates at 0.5 μA per well. To start the reaction, 10 μl of 10 nM Pim3 kinase and 200 μM BAD peptide (RSRHSSYPAGT-OH) in assay buffer (50 mM HEPES pH 7.5, 5 mM MgCl2, 1 mM DTT, 0.05% BSA) is added into each well. After 15 minutes, 10 μl of 80 μM ATP in assay buffer is added. Final assay concentrations are 5 nM PIM1, 40 μM ATP, 100 μM BAD peptide and 2.5% DMSO. The reaction is performed until approximately 50% of the ATP is depleted, then stopped by the addition of 20 μl KinaseGlo Plus (Promega Corporation) solution. The stopped reaction is incubated for 10 minutes and the remaining ATP detected via luminescence on the Victor2 (Perkin Elmer).

The next test has as its system KMS11 cells. The test can be described thus: Cell proliferation assay. The test is classed as cell-based. Conditions: KMS-11, 72 h; KMS11 human myeloma cell line, 3 days, CellTiter-Glo. The protocol:
KMS11 (human myeloma cell line), were cultured in IMDM supplemented with 10% FBS, sodium pyruvate and antibiotics. Cells were plated in the same medium at a density of 2000 cells per well into 96 well tissue culture plates, with outside wells vacant, on the day of assay. MM1.s (human myeloma cell line), were cultured in RPMI1640 supplemented with 10% FBS, sodium pyruvate and antibiotics. Cells were plated in the same medium at a density of 5000 cells per well into 96 well tissue culture plates, with outside wells vacant, on the day of assay.
Test compounds supplied in DMSO were diluted into DMSO at 500 times the desired final concentrations before dilution into culture media to 2 times final concentrations. Equal volumes of 2× compounds were added to the cells in 96 well plates and incubated at 37° C. for 3 days.
After 3 days plates were equilibrated to room temperature and equal volume of CellTiter-Glow Reagent (Promega) was added to the culture wells. The plates were agitated briefly and luminescent signal was measured with luminometer. The percent inhibition of the signal seen in cells treated with DMSO alone vs. cells treated with control compound was calculated and used to determine EC50 values (i.e., the concentration of a test compound that is required to obtain 50% of the maximum effect in the cells) for tested compounds, as shown in Example 24.
A general note: In ATP-based viability assays light output follows the ATP content of the culture.

Bounds are passed on as bounds.

Sequence of PIM2 (Q9P1W9 whole entry, species assumed): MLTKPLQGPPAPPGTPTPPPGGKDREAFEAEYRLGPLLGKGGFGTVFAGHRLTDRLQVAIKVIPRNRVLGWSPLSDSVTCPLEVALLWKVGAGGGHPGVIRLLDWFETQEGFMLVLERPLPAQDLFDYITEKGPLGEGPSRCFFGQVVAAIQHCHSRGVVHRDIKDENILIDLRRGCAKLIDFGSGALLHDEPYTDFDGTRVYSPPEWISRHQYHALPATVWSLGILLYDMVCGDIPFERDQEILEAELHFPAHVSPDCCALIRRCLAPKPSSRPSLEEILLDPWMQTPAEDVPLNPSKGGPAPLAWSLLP
Sequence of PIM1 (P11309 whole entry, species assumed): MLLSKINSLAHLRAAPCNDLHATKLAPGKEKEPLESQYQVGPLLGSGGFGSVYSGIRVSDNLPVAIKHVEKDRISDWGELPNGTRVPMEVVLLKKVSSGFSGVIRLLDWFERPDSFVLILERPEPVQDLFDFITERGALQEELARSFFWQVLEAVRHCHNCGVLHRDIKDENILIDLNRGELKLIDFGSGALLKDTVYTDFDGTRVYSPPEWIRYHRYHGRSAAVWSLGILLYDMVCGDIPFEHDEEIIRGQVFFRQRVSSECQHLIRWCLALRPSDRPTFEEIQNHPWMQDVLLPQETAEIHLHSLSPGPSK

`NC1C=C(c2ccncc2Nc2cccc3cnc(-c4c(F)cccc4F)nc23)CCC1` (centres unmarked) [Example 1, N-(4-(3-aminocyclohex-1-enyl)pyridin-3-yl)-2-(2,6-difluorophenyl)quinazolin-8-amine]: the values for the IC50 against PIM1, against PIM2 and against PIM3 were 0.152 µM, 0.392 µM and 0.078 µM, respectively.

On to `N[C@@H]1CN(c2ccncc2Nc2cccc3cnc(-c4c(F)cccc4F)nc23)CC[C@@H]1O` [Example 2, (3R,4S)-3-amino-1-(3-(2-(2,6-difluorophenyl)-quinazolin-8-ylamino)-pyridin-4-yl)piperidin-4-ol], for which the IC50 turned out to be 0.039 µM on PIM1, 0.09 µM against PIM2 and 0.018 µM at PIM3.

In the case of `N[C@@H]1CN(c2ccncc2Nc2cccc3cnc(-c4c(F)cccc4F)nc23)CC[C@H]1O` [Example 3, (3R,4R)-3-amino-1-(3-(2-(2,6-difluorophenyl)-quinazolin-8-ylamino)-pyridin-4-yl)piperidin-4-ol], the IC50 was 0.184 µM against PIM1, 0.23 µM at PIM2 and 0.067 µM against PIM3.

`CCO[C@@H]1C[C@H](N)CN(c2ccncc2Nc2cccc3cnc(-c4c(F)cccc4F)nc23)C1` [Example 6, N-(4-((3S,5R)-3-amino-5-ethoxypiperidin-1-yl)pyridin-3-yl)-2-(2,6-difluorophenyl)quinazolin-8-amine]: the values for the IC50 at PIM1, against PIM2 and at PIM3 were 1.7 µM, 0.46 µM and 2.1 µM, respectively.

Take `N[C@@H]1CCCN(c2ccncc2Nc2cccc3cnc(-c4c(F)cccc4F)nc23)C1` [Example 7, (R)-N-(4-(3-aminopiperidin-1-yl)pyridin-3-yl)-2-(2,6-difluorophenyl)quinazolin-8-amine]: the results for the IC50 against PIM1, on PIM2 and on PIM3 were 2.1 µM, 3.6 µM and 0.212 µM, respectively.

`NC1CC(N)CN(c2ccncc2Nc2cccc3cnc(-c4c(F)cccc4F)nc23)C1` (centres unmarked) [Example 8, 1-(3-(2-(2,6-difluorophenyl)quinazolin-8-ylamino)pyridin-4-yl)piperidine-3,5-diamine]: the IC50 was 2.3 µM against PIM1, 2.5 µM against PIM2 and 0.246 µM against PIM3.

For `N[C@@H]1CN(c2ccncc2Nc2cccc3cnc(-c4c(F)cccc4F)nc23)CC[C@H]1F` [Example 9, N-(4-((3R,4R)-3-amino-4-fluoropiperidin-1-yl)pyridin-3-yl)-2-(2,6-difluorophenyl)quinazolin-8-amine], the IC50 was 0.465 µM on PIM1, 0.498 µM on PIM2 and 0.17 µM against PIM3.

In the case of `N[C@H]1CN(c2ccncc2Nc2cccc3cnc(-c4c(F)cccc4F)nc23)CC[C@@H]1F` [Example 10, N-(4-((3S,4S)-3-amino-4-fluoropiperidin-1-yl)pyridin-3-yl)-2-(2,6-difluorophenyl)quinazolin-8-amine], the figures for the IC50 on PIM1, against PIM2 and on PIM3 were 4.7 µM, over 25 µM and 0.502 µM, respectively.

For the molecule `NC1CCCCN(c2ccncc2Nc2cccc3cnc(-c4c(F)cccc4F)nc23)C1` (centres unmarked) [Example 11, N-(4-(3-aminoazepan-1-yl)pyridin-3-yl)-2-(2,6-difluorophenyl)quinazolin-8-amine], the IC50 is 2.9 µM against PIM1, over 25 µM against PIM2 and 0.468 µM on PIM3.

`N[C@H]1CCCN(c2ncncc2Nc2cccc3cnc(-c4c(F)cccc4F)nc23)C1` [Example 12, (S)-N-(4-(3-aminopiperidin-1-yl)pyrimidin-5-yl)-2-(2,6-difluorophenyl)quinazolin-8-amine]: the results for the IC50 against PIM1, against PIM2 and on PIM3 were 5.4 µM, over 25 µM and 3.9 µM, respectively.

Take `N[C@H]1C[C@@H](CF)CN(c2ccncc2Nc2cccc3cnc(-c4c(F)cccc4F)nc23)C1` [Example 13, N-(4-((3S,5R)-3-amino-5-(fluoromethyl)piperidin-1-yl)pyridin-3-yl)-2-(2,6-difluorophenyl)quinazolin-8-amine]: the IC50 against PIM1 was 0.053 µM; against PIM2 it was 0.02 µM; on PIM3, 0.049 µM. In addition, in the test with KMS11 cells, the EC50 amounted to 7.3 µM.

`C[C@H]1C[C@@H](N)CN(c2ccncc2Nc2cccc3cnc(-c4c(F)cccc4F)nc23)C1` [Example 14, N-(4-((3R,5S)-3-amino-5-methylpiperidin-1-yl)pyridin-3-yl)-2-(2,6-difluorophenyl)quinazolin-8-amine]: the IC50 was 0.882 µM on PIM1, 0.852 µM on PIM2 and 0.18 µM against PIM3.

For the molecule `C[C@@H]1C[C@H](N)CN(c2ccncc2Nc2cccc3cnc(-c4c(F)cccc4F)nc23)C1` [Example 15, N-(4-((3S,5R)-3-amino-5-methylpiperidin-1-yl)pyridin-3-yl)-2-(2,6-difluorophenyl)quinazolin-8-amine], the IC50 came to 0.018 µM against PIM1, 0.009 µM against PIM2 and 0.019 µM against PIM3. In the test on KMS11 cells, this molecule gave an EC50 of 2.6 µM.

As to `N[C@H]1CCCN(c2ccncc2Nc2cccc3cnc(-c4nccs4)nc23)C1` [Example 16, (S)-N-(4-(3-aminopiperidin-1-yl)pyridin-3-yl)-2-(thiazol-2-yl)quinazolin-8-amine], the results for the IC50 at PIM1, at PIM2 and against PIM3 were 0.411 µM, 1.9 µM and 0.149 µM, respectively.

Turning to `N[C@H]1CCCN(c2ccncc2Nc2cccc3cnc(-c4c(F)cccc4F)nc23)C1` [Example 17, (S)-N-(4-(3-aminopiperidin-1-yl)pyridin-3-yl)-2-(2,6-difluorophenyl)quinazolin-8-amine], the IC50 came to 0.021 µM against PIM1, 0.031 µM on PIM2 and 0.016 µM against PIM3.

Take `N[C@H]1CCCN(c2ccncc2Nc2cccc3cnc(-c4ccccc4F)nc23)C1` [Example 18, (S)-N-(4-(3-aminopiperidin-1-yl)pyridin-3-yl)-2-(2-fluorophenyl)quinazolin-8-amine]: the IC50 was determined as 0.029 µM against PIM1, 0.131 µM at PIM2 and 0.018 µM on PIM3.

Consider `N[C@H]1CCCN(c2ccncc2Nc2cccc3cnc(-c4cccc(-c5nccs5)c4)nc23)C1` [Example 19, (S)-N-(4-(3-aminopiperidin-1-yl)pyridin-3-yl)-2-(3-(thiazol-2-yl)phenyl)quinazolin-8-amine], for which the IC50 on PIM1 amounted to 0.056 µM; at PIM2, 2 µM; at PIM3 it was 0.095 µM.

As usually defined, the IC50 is the concentration that inhibits the measured activity by half. Low readings indicate higher potency, high ones lower potency. As usually defined, the EC50 is the concentration needed to bring the measured effect to its halfway point. Higher therefore signals a less potent agent.

Source of the values: patent publication US8759338B2, “Heterocyclic kinase inhibitors” (Novartis AG, priority 2008, dated 2014).
